Measurements reported in ChEMBL document CHEMBL5625257, “Design, synthesis, and evaluation of dual EGFR/AURKB inhibitors as anticancer agents for non-small cell lung cancer” (Bioorg Med Chem Lett, 2024).
pIC50, pKd: −log10 of the molar value.

Tests used:
[1] = molecular target: Epidermal growth factor receptor (Homo sapiens, UniProt P00533)
Description: Binding affinity to wild type human EGFR partial length (R669 to V1011 residues) expressed in bacterial expression system assessed as dissociation constant by DiscoverX kinomescan assay

[2] = molecular target: T1, Epidermal growth factor receptor (Homo sapiens, UniProt P00533, L858R)
Description: Binding affinity to human partial length EGFR (R669 to V1011 residues) L858R mutant expressed in bacterial expression system assessed as dissociation constant by DiscoverX kinomescan assay

[3] = molecular target: T1, Epidermal growth factor receptor; remark: listed apart in the source
Description: Inhibition of EGFR L858R mutant phosphorylation (unknown origin) preincubated for 60 mins in the presence of ATP

[4] = molecular target: T2, Aurora kinase B/Inner centromere protein (Homo sapiens, UniProt Q96GD4)
T2 sequence (Q96GD4 whole entry): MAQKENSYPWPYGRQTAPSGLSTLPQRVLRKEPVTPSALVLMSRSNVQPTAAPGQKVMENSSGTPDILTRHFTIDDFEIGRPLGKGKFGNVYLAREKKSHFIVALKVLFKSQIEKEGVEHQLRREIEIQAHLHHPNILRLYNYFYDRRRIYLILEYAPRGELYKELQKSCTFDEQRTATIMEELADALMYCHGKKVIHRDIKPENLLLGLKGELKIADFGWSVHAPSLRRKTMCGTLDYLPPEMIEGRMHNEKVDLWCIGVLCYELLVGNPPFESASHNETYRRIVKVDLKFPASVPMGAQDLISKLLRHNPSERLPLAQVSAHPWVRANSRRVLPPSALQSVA
T2 sequence (Q9NQS7 whole entry, further chain): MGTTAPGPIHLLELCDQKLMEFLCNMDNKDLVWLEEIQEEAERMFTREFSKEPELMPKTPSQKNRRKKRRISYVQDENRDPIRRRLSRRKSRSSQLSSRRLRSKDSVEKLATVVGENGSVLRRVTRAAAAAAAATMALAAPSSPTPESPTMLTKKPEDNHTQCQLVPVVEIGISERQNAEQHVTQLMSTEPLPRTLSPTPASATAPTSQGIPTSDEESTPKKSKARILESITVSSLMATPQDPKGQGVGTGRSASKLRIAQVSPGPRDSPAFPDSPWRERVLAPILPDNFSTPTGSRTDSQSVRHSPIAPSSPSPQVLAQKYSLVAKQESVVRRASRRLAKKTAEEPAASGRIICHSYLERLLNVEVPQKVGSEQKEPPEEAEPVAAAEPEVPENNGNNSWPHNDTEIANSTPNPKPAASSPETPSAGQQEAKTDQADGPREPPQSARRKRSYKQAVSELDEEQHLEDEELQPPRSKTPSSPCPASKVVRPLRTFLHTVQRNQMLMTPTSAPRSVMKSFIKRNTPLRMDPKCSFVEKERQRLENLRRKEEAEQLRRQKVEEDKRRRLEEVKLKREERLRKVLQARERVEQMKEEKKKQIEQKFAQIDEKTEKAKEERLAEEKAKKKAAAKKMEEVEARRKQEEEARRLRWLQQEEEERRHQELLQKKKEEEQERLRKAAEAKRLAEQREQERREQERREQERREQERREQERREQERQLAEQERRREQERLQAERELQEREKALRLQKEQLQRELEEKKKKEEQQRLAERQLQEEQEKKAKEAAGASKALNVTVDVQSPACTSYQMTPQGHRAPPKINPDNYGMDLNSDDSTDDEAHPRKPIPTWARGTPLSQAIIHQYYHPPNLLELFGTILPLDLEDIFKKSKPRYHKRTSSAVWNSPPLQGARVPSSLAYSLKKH
Description: Inhibition of AURKB/INCENP (unknown origin) in the presence of ATP at Km concentration

[5] = molecular target: T1, Epidermal growth factor receptor; remark: listed apart in the source
Description: Inhibition of EGFR L858R mutant phosphorylation (unknown origin) in the presence of ATP

[6] = system: A549; assay: Anticancer activity against human A549 cells harboring KRAS mutant assessed as inhibition of cell growth
[7] = molecular target: T2, Aurora kinase B/Inner centromere protein; remark: listed apart in the source
Description: Inhibition of AURKB/INCENP (unknown origin) preincubated for 60 mins in the presence of ATP at Km concentration

[8] = molecular target: T3, Aurora kinase B (Homo sapiens, UniProt Q96GD4); assay: Inhibition of AURKB (unknown origin) by nanoBRET assay
T3 sequence (Q96GD4 whole entry): as the sequence (Q96GD4 whole entry) above

[9] = system: NCI-H1975; assay: cells; details: Homo sapiens
Description: Anticancer activity against TKI resistant human NCI-H1975 cells harboring EGFR L858R/T790M mutant assessed as inhibition of cell growth

[10] = molecular target: T3, Aurora kinase B
Description: Binding affinity to human partial length AURKB (D25 to A303 residues) expressed in mammalian system assessed as dissociation constant by DiscoverX kinomescan assay

T1 sequence (P00533 25-1210 L858R limits assumed): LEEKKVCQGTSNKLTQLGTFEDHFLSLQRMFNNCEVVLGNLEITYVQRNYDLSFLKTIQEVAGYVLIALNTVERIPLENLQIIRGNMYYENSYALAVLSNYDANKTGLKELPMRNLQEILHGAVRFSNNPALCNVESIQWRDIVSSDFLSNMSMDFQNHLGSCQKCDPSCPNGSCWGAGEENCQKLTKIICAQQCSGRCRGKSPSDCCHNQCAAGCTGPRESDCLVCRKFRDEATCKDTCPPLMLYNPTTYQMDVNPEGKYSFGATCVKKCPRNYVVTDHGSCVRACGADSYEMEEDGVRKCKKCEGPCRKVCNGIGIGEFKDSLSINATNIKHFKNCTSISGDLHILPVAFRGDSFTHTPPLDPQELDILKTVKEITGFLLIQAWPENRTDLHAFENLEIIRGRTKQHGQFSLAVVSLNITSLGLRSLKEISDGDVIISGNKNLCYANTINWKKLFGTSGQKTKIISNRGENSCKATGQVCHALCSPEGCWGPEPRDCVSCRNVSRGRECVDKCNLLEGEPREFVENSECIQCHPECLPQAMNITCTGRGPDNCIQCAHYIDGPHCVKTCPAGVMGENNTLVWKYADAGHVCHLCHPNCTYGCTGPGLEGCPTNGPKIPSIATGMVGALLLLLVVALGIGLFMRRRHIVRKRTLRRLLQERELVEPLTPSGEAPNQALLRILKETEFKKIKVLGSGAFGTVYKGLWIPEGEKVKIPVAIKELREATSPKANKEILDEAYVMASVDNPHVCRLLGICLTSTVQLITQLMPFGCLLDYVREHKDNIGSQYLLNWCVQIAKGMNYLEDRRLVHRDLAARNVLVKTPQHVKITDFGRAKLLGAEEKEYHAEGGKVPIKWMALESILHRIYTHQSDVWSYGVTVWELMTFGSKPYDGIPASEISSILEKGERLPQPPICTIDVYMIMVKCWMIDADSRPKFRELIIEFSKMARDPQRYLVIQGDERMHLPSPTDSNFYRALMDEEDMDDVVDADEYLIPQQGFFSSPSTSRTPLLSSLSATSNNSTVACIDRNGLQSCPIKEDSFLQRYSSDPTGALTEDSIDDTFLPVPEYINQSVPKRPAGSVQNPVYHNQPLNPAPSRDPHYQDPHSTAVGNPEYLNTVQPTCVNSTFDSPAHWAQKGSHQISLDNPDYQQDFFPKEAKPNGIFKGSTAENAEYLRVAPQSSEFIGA
Epidermal growth factor receptor (Homo sapiens, UniProt P00533), sequence (P00533 whole entry): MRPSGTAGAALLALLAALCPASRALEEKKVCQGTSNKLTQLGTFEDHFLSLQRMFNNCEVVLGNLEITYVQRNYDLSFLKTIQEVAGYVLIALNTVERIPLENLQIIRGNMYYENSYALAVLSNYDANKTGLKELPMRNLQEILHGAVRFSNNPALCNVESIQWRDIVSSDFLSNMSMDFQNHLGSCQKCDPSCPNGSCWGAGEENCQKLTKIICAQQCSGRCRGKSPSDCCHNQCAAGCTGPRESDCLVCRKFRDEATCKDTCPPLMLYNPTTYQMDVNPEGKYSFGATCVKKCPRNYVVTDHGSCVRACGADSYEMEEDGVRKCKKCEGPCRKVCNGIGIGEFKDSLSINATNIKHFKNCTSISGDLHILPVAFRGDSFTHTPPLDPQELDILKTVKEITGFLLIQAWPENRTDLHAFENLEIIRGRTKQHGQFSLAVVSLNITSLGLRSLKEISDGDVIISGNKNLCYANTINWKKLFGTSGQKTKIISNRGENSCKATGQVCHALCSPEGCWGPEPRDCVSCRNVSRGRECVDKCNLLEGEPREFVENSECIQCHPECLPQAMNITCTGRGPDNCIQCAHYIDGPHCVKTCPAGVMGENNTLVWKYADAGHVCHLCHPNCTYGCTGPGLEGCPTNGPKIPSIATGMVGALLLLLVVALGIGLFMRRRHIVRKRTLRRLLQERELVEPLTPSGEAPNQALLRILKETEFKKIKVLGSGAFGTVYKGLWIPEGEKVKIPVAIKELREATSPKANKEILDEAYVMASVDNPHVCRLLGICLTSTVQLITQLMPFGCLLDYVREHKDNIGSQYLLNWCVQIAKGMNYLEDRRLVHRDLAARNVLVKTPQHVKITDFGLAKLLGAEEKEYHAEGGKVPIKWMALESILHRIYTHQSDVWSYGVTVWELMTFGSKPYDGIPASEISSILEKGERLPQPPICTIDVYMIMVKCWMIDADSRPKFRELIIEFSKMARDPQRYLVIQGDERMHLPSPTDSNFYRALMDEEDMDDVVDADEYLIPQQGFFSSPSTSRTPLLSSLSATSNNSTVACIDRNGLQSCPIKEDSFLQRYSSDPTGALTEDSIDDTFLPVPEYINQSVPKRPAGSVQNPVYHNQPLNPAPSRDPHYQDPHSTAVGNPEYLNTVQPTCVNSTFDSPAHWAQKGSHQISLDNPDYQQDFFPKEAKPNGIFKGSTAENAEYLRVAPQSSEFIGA

pIC50 [4] | pIC50 [6] | pIC50 [7] | pIC50 [8] | Structure (SMILES) | pKd [1] | pKd [2] | pIC50 [3] | pIC50 [5] | pIC50 [9] | pKd [10]
 |  |  |  | COc1cc2c(Nc3ccc(NC(=O)c4ccccc4)cc3)ncnc2cc1OCCCN1CCOCC1 | 6.66 | 6.06 |  |  |  | 
5.56 | 4.69 | 5.42 |  | Brc1cccc(Nc2ncnc3[nH]ccc23)c1 |  |  | 8.52 | 8.52 |  | 
6.10 |  | 7.30 | 4.83 | O=C(Nc1ccccc1)c1ccc(Nc2ncnc3[nH]ccc23)cc1 |  |  |  |  |  | 
 | 7.23 |  |  | COc1cccc2c1C(=O)c1c(O)c3c(c(O)c1C2=O)C[C@@](O)(C(=O)CO)C[C@@H]3O[C@H]1C[C@H](N)[C@H](O)[C@H](C)O1 [DOXORUBICIN] |  |  |  |  |  | 

Structure (SMILES) | pIC50 [4] | pIC50 [6] | pIC50 [7] | pIC50 [8] | pKd [1] | pKd [2] | pIC50 [3] | pIC50 [5] | pIC50 [9] | pKd [10]
Cn1nccc1-c1cc2c(Nc3ccc(OCc4ccccc4)cc3)ncnc2[nH]1 | 5.40 | 5.53 | 5.96 |  |  | 6.68 | 7.16 | 7.15 | < 4.30 | < 4.52
